Data as given in article PMC9028180, “Anti-Inflammatory Activity of Monosubstituted Xestoquinone Analogues from the Marine Sponge Neopetrosia compacta” (Antioxidants, 2022).
Read-outs that look alike come from different tables or passages of the source.

Tests used:
[1] = tested on: Nrf2-luciferase reporter MCF7 stable cells; experiment: Cytotoxicity counter-screen on Nrf2-luciferase reporter MCF7 cells; assay type: cell-based
Experimental: Absorbance was measured at 570 nm. […] For the cytotoxicity counter-screen, Nrf2-luciferase reporter MCF7 stable cells were grown, seeded, and treated identically with the reporter assay. Cell viability was done using the tetrazolium reagent, as indicated previously.

[2] = tested on: Nrf2-luciferase reporter MCF7 stable cells; experiment: Nrf2-ARE activation luciferase reporter assay; assay type: cell-based
Experimental: Nrf2-luciferase reporter MCF7 stable cells (Signosis, Inc.) were grown in high glucose DMEM (Hyclone, Logan, UT, USA) supplemented with 10% FBS, 1% antibiotic-antimycotic solution, and 75 µg/mL geneticin. A 100-µL cell suspension was plated with a seeding density of 20,000 cells/well. The plate was incubated at 37 °C with 5% CO2 for 24 h prior to treatment. Cells were treated with compounds at half-log dilution, ranging from 0.032–100 µM (0.5% DMSO). DMSO (0.5%) and tBHQ (0.01–32 μM) served as solvent and positive controls, respectively. After 8-, 12-, and 16-h incubation, the medium was removed, and cells were washed with 100 µL 1X PBS. Lysis buffer (Signosis, Inc.) was added, and the plate was further incubated for 15 min at room temperature. A 100-µL firefly luciferase substrate (Signosis, Inc.) was added, and luminescence was measured. Nrf2 fold activation of treated cells was assessed relative to the solvent control. The assay was done in two independent experiments in triplicate.

[3] = tested on: LPS-stimulated RAW 264.7 murine macrophage cells; experiment: Tetrazolium-based (MTT) cell viability assay; conditions: for CC50: Mus musculus, RAW264.7, 24 h; for decrease in cytotoxicity relative to 1: from cell viability IC50, compound pre-treatment + LPS; for IC50: read-out: Cell Viability (IC50)
Experimental: MTT solution (5 mg/mL in PBS, 15 µL) was added to the original assay plate, and the reaction was terminated with the addition of acidified sodium dodecyl sulfate (SDS) solution after 2 h. Absorbance was measured at 570 nm. […] The concentration-dependent response curve for cell viability of the pure compounds was generated, and the IC50 was determined using a non-linear regression, inhibitor vs. normalized response—variable slope analysis. Samples were tested in at least one independent experiment performed in triplicate.
Statistical comparison of the cell viability IC50 of 2–6 relative to xestoquinone (1) was analyzed using one-way ANOVA and Tukey’s post-hoc test at p-value < 0.05. Comparison of the IC50 values from NO production and cytotoxicity assessment for each of the compounds were analyzed using a one-tailed unpaired t-test at p-value < 0.05.

Nos2 = experiment: qRT-PCR differential gene expression, Nos2; assay type: cell-based, murine; conditions: 10 μM, 12 h, LPS-stimulated RAW 264.7; relative to LPS-stimulated solvent control
Experimental: (§1) RAW 264.7 cells (passage number ≤ 6) were seeded in a 6-well microplate at a density of 2.5 × 10^5 cells/well and incubated for 24 h at 37 °C with 5% CO2 prior to treatment. Cells were treated with 10 μM compound or 0.5% DMSO in duplicate and incubated for 1 h before stimulation with LPS (1 µg/mL). At 12 h post-treatment, total RNA was extracted with Qiagen RNeasy extraction kit (Germantown, MD, USA) according to manufacturer’s protocol. RNA was reverse-transcribed from 2 µg of total RNA using SuperScript IV Reverse Transcriptase (Invitrogen, Waltham, MA, USA), 1 mM dNTP, and Oligo (dT)12–18 primer (0.5 µg/mL, Invitrogen). Quantitative real time-PCR (qRT-PCR) was performed in ABI 7500 Fast Real-Time PCR (Applied Biosystems, Bedford, MA, USA). qRT-PCR was performed as a 25 µL total reaction mixture, composed of 1X TaqMan® universal master mix, 1X TaqMan® gene expression assay mix, 2 µL of cDNA, and 9.25 µL RNase-free sterile water. Analyses were carried out using probes for Il1b (Assay ID Mm00434228_m1), Nos2 (Mm00440502_m1), and Nqo1 (Mm01253561_m1). The thermocycler program was designed as follows: 50 °C for 2 min, 95 °C for 10 min, and 40 cycles of 95 °C for 15 s and 60 °C for 1 min. Mouse Gapdh (Mm99999915_g1) was used as the internal control for normalization. The measurement of gene expression is reported in cycles to threshold (Ct) PCR, whose value represents the cycle number at which the amount of amplified DNA of the target gene reached the threshold level. The relative gene expression was analyzed using the comparative Ct method to compare the Ct value of the target gene to the internal control in a treatment sample. Statistical analysis on the relative gene expression was carried out using one-way ANOVA and Tukey’s multiple comparison test with p-value < 0.05. Analysis was done in two independent experiments with three technical replicates each.

Il1b = experiment: qRT-PCR differential gene expression, Il1b; assay type: cell-based, murine; conditions: 10 μM, 12 h, LPS-stimulated RAW 264.7; relative to LPS-stimulated solvent control
Experimental: as §1

Nqo1 = experiment: qRT-PCR differential gene expression, Nqo1; assay type: cell-based, murine; conditions: 10 μM, 12 h, LPS-stimulated RAW 264.7
Experimental: as §1

[4] = tested on: NO production in LPS-stimulated RAW 264.7 murine macrophage cells; experiment: Nitric oxide production assay (Griess) in LPS-stimulated RAW 264.7 cells; assay type: cell-based
Experimental: The anti-inflammatory activity of the extracts and compounds was assessed according to the procedure of Ratnayake et al. (2013). RAW 264.7 murine macrophage cells (passage number ≤ 6) were grown in Dulbecco’s Modified Eagle’s Medium (DMEM) supplemented with 10% fetal bovine serum (FBS) and 1% antibiotic-antimycotic solution. At 24 h post-incubation, the cells (200,000 cells/mL) were treated with extracts (50 and 5 µg/mL) or pure compounds in triplicate. For pure compounds, a 20 mM stock was prepared in DMSO and serially diluted to generate eight concentrations ranging from 0.032–100 µM. DMSO (0.5%) served as the solvent control. Dexamethasone (50 µM) and tBHQ (10 µM) served as positive controls. LPS (1 µg/mL) was added to each well after 1 h of extract or compound pre-treatment. A reverse treatment was also done for compounds, where cells were first pre-treated with LPS (1 µg/mL) prior to the addition of the compound.
After 24 h of incubation, NO production was assessed by measuring the nitrite concentration using the Griess Reagent System (Promega, Madison, WI, USA) according to the manufacturer’s protocol. Results were presented as %NO production relative to LPS-stimulated solvent control.

[5] = Direct antioxidant activity, DPPH scavenging assay; conditions: 30 min, room temperature
Experimental: The direct antioxidant activity of 1–6 was determined using the 2,2-diphenyl-1-picrylhydrazyl (DPPH) scavenging method. Half-log dilution of 1–6 (0.032 to 100 µM) was prepared in MeOH. Then, 20 μL of 1 mM DPPH was dispensed into each well and incubated for 30 min at room temperature with shaking. Absorbance was measured at 517 nm, and results are presented as % radical scavenging activity (% RSA) relative to the solvent control. Ascorbic acid (0.032–100 µM) and tBHQ (0.032–100 µM) served as positive controls, while 0.5% DMSO served as solvent control. The analysis was done in triplicate.

[6] = read-out: Cell Viability (IC50), Compound pre-treatment 1 h + LPS, 24 h, mean ± SD of two independent experiments
[7] = read-out: Cell Viability (IC50), LPS pre-treatment 1 h + compound, single experiment in triplicate
[8] = Mus musculus, RAW264.7, 24 h, Compound pre-treatment 1 h + LPS (1 µg/mL), 24 h, mean ± SD of two independent experiments, read-out: NO Production (IC50)
[9] = Mus musculus, RAW264.7, 24 h, LPS pre-treatment 1 h + compound, single experiment in triplicate, read-out: NO Production (IC50)
[10] = both timepoints (12 h and 16 h)
[11] = Compound pre-treatment 1 h + LPS, 24 h, mean ± SD of two independent experiments
[12] = LPS pre-treatment 1 h + compound, single experiment in triplicate
[13] = Compound pre-treatment 1 h + LPS (1 µg/mL), 24 h, mean ± SD of two independent experiments, read-out: NO Production (IC50)
[14] = LPS pre-treatment 1 h + compound, single experiment in triplicate, read-out: NO Production (IC50)

Compound: C[C@@]12CCCc3coc(c31)C(=O)c1cc3c(cc12)C(=O)C=CC3=O [Compound 1, xestoquinone]
- cytotoxicity to Nrf2-MCF7 cells ([1]; 12 h, 1.0 and 3.2 μM): no cytotoxicity
- cytotoxicity to Nrf2-MCF7 cells ([1]; 16 h, 1.0 and 3.2 μM): no significant cytotoxic effects
- Nrf2 activation ([2]; 12 h, 1.0 μM, relative to solvent control): at least three
- Nrf2 activation ([2]; 12 h, 3.2 μM): at least three
- Nrf2 activation ([2]; 12 h posttreatment): modest increase in Nrf2 activation
- Nrf2 activation ([2]; 16 h, 1.0 μM): four
- Nrf2 activity in reporter assay ([2]; 16 h incubation): significant activation
- CC50 [3, 6]: 6 ± 3.2 µM
- CC50 [3, 7]: 4.9 µM
- downregulation of LPS-induced Nos2 expression (Nos2): 2.7 fold
- downregulation of Il1b expression (Il1b): 2.6 fold
- upregulation in Nqo1 expression (Nqo1): did not change the Nqo1 expression
- IC50 [4, 8]: 1.2 ± 0.1 µM
- IC50 [4, 9]: 0.99 µM

Compound: C[C@@]12CCCc3coc(c31)C(=O)c1cc3c(cc12)C(=O)C1=C(NCCS1(=O)=O)C3=O [Compound 2, adociaquinone B]
- Nrf2 activation [2, 10]: Nrf2 activation was not observed
- CC50 [3, 6]: 5.3 to 6.4 µM
- CC50 [3, 7]: 4.2 µM
- downregulation of LPS-induced Nos2 expression (Nos2): unaffected
- downregulation of Il1b expression (Il1b): 12.1 fold
- upregulation in Nqo1 expression (Nqo1): did not change the Nqo1 expression
- IC50 ([4]; Mus musculus, RAW264.7, 24 h, read-out: NO Production (IC50), Compound pre-treatment 1 h + LPS (1 µg/mL), 24 h, mean ± SD of two independent experiments): 1.9 ± 0.72 µM
- IC50 ([4]; Mus musculus, RAW264.7, 24 h, read-out: NO Production (IC50), LPS pre-treatment 1 h + compound, single experiment in triplicate): 1.5 µM

Compound: CC12CCCc3coc(c31)C(=O)c1cc3c(cc12)C(=O)C=C(CO)C3=O (stereo not shown) [Compound 4, 14-hydroxymethylxestoquinone]
- Nrf2 activation ([2]; 12 h posttreatment): modest increase in Nrf2 activation
- CC50 [3, 6]: 16 ± 0.68 µM
- CC50 [3, 7]: 27 µM
- decrease in cytotoxicity relative to 1 [3]: more than two
- IC50 [4, 8]: 2.5 ± 0.39 µM
- IC50 [4, 9]: 1.8 µM

Compound: CC12CCCc3coc(c31)C(=O)c1cc3c(cc12)C(=O)C(CO)=CC3=O (stereo not shown) [Compound 5, 15-hydroxymethylxestoquinone]
- CC50 [3, 6]: > 32 µM
- CC50 [3, 7]: > 32 µM
- decrease in cytotoxicity relative to 1 [3]: five
- downregulation of LPS-induced Nos2 expression (Nos2): 2.6 fold
- downregulation of Il1b expression (Il1b): 2.1 fold
- upregulation in Nqo1 expression (Nqo1): 3.0 fold
- IC50 [4, 8]: 4 ± 2.4 µM
- IC50 [4, 9]: 4.7 µM

Compound: O=C1O[C@H]([C@@H](O)CO)C(O)=C1O [ascorbic acid]
- IC50 [5]: 13 µM

Compound: C[C@@H]1C[C@H]2[C@@H]3CCC4=CC(=O)C=C[C@]4(C)[C@@]3(F)[C@@H](O)C[C@]2(C)[C@@]1(O)C(=O)CO [dexamethasone, reference compound]
- CC50 [3, 6]: > 100 µM
- CC50 [3, 7]: > 100 µM
- reduction of NO production ([4]; 50 µM): 50%
- IC50 [4, 8]: > 0.032 µM
- IC50 [4, 9]: > 0.032 µM

Compound: CC(C)(C)c1cc(O)ccc1O [tBHQ, reference compound]
- cytotoxicity to Nrf2-MCF7 cells ([1]; 12 h, 10 and 32 μM): no observable cytotoxicity
- cytotoxicity to Nrf2-MCF7 cells ([1]; 16 h, 10 and 32 μM): non-cytotoxic
- Nrf2 activation ([2]; 12 h, 32 μM): 18 fold
- Nrf2 activation ([2]; 16 h, 10 μM): four
- Nrf2 activation ([2]; 16 h, 32 μM): 19 fold
- IC50 [5]: 11 µM
- IC50 [3, 11]: > 100 µM
- IC50 [3, 12]: > 100 µM
- downregulation of LPS-induced Nos2 expression (Nos2): 3.8 fold
- downregulation of Il1b expression (Il1b): six
- upregulation in Nqo1 expression (Nqo1): 6.3 fold
- reduction of NO production ([4]; 10 µM): 90%
- IC50 [4, 13]: 1.2 ± 0.23 µM
- IC50 [4, 14]: 0.42 µM

Compound: adociaquinone A [Compound 3]
- Nrf2 activation [2, 10]: Nrf2 activation was not observed
- IC50 [3, 11]: 6.4 ± 1.2 µM
- IC50 [3, 12]: 5.9 µM
- IC50 [4, 13]: 2.1 ± 0.17 µM
- IC50 [4, 14]: 1.5 µM
